81 compounds from PubChem BioAssay AID2202555 (NIEHS Division of Translational Toxicology (DTT)) can be followed below.

Records with an inconclusive call do not appear. The source made the active and inactive calls. The rule behind the calls is not given here.

The subject of the first data set is rat and mouse 2-year carcinogenicity bioassay, tumor evidence. The data set is described as follows: Consolidated carcinogenicity assay summary data. To be noted: Route (rodents): Dosed feed. The text has this: Cancer Evaluation Criteria
The National Toxicology Program describes the results of individual experiments on a chemical agent and notes the strength of the evidence for conclusions regarding each study. […] Other organizations, such as the International Agency for Research on Cancer, assign a strength of evidence for conclusions based on an examination of all available evidence, including animal studies such as those conducted by the NTP, epidemiologic studies, and estimates of exposure. Thus, the actual determination of risk to humans from chemicals found to be carcinogenic in laboratory animals requires a wider analysis that extends beyond the purview of these studies.
Five categories of evidence of carcinogenic activity are used in the Technical Report series to summarize the strength of evidence observed in each experiment: two categories for positive results (clear evidence and some evidence); one category for uncertain findings (equivocal evidence); one category for no observable effects (no evidence); and one category for experiments that cannot be evaluated because of major flaws (inadequate study). These categories of interpretative conclusions were first adopted in June 1983 and then revised on March 1986 for use in the Technical Report series to incorporate more specifically the concept of actual weight of evidence of carcinogenic activity. For each separate experiment (male rats, female rats, male mice, female mice), one of the following five categories is selected to describe the findings. These categories refer to the strength of the experimental evidence and not to potency or mechanism.
For studies showing multiple chemical-related neoplastic effects that if considered individually would be assigned to different levels of evidence categories, the following convention has been adopted to convey completely the study results. In a study with clear evidence of carcinogenic activity at some tissue sites, other responses that alone might be deemed some evidence are indicated as "were also related" to chemical exposure. In studies with clear or some evidence of carcinogenic activity, other responses that alone might be termed equivocal evidence are indicated as "may have been" related to chemical exposure.
When a conclusion statement for a particular experiment is selected, consideration must be given to key factors that would extend the actual boundary of an individual category of evidence. Such consideration should allow for incorporation of scientific experience and current understanding of long-term carcinogenesis studies in laboratory animals, especially for those evaluations that may be on the borderline between two adjacent levels. These considerations should include:
- adequacy of the experimental design and conduct;
- occurrence of common versus uncommon neoplasia;
- progression (or lack thereof) from benign to malignant neoplasia as well as from preneoplastic to neoplastic lesions;
- some benign neoplasms have the capacity to regress but others (of the same morphologic type) progress. At present, it is impossible to identify the difference. Therefore, where progression is known to be a possibility, the most prudent course is to assume that benign neoplasms of those types have the potential to become malignant;
- combining benign and malignant tumor incidences known or thought to represent stages of progression in the same organ or tissue;
- latency in tumor induction;
- multiplicity in site -specific neoplasia;
- supporting information from proliferative lesions (hyperplasia) in the same site of neoplasia or in other experiments (same lesion in another sex or species);
- presence or absence of dose relationships;
- statistical significance of the observed tumor increase;
- concurrent control tumor incidence as well as the historical control rate and variability for a specific neoplasm;
- survival-adjusted analyses and false positive or false negative concerns;
- structure-activity correlations; and
[…]
Regarding `COc1ccccc1N`, the carcinogen call was “active; clear evidence”. The same measure, in the same setting: the same measure for `Cc1cc(N=Nc2c(O)ccc3ccccc23)c(S(=O)(=O)O)cc1Cl`: “active; clear evidence”. Turning to `CCOc1ccc(NC(C)=O)cc1[N+](=O)[O-]`, the carcinogen call is “active; no evidence”. On the same count and under the same terms, the same measure for `ClC(Cl)=C(c1ccc(Cl)cc1)c1ccc(Cl)cc1`: “active; no evidence”. On the same count and under the same terms, the same measure for `O=Nc1ccc(NO)cc1`: “active; no evidence”; for `COC(=O)C(c1ccccc1)C1CCCCN1` (stereo unspecified): “active; no evidence”; for `Cc1cc(Cl)ccc1N`: “active; no evidence”. On the same count and under the same terms, the same measure for `O=C1c2ccccc2-c2ccc3c4c(ccc1c24)-c1ccccc1C3=O`: “active; no evidence”; for `C/C=C(/C)C(=O)O[C@H]1CCN2CC=C(COC(=O)[C@@](O)([C@@H](C)OC)C(C)(C)O)[C@H]12`: “active; clear evidence”. In the case of `Nc1ccc(S(=O)(=O)c2ccc(N)cc2)cc1`, the carcinogen call was “active; clear evidence”. On the same count and under the same terms, the same measure for `O=C([O-])c1cc(N=Nc2ccc(-c3ccc(N=Nc4c(O)ccc(N=Nc5cc(S(=O)(=O)[O-])ccc5[O-])c4[O-])cc3)cc2)ccc1O.[Cu+2].[Na+].[Na+]`: “active; no evidence”. On the same count and under the same terms, for `S=C1NCCN1` the value was “active; clear evidence”. On the same count and under the same terms, the same measure for `CCNC(=S)NCC`: “active; clear evidence”; for `O=C(O)C1C(C(=O)O)C2(Cl)C(Cl)=C(Cl)C1(Cl)C2(Cl)Cl` (stereo unspecified): “active; clear evidence”; for `CCC1(c2ccccc2)C(=O)NCNC1=O`: “active; equivocal evidence”. As for `Cc1ccc(Cl)cc1N`, the carcinogen call was “active; no evidence”. On the same count and under the same terms, the same measure for `Nc1ccc(N=Nc2ccc(-c3ccc(N=Nc4c(S(=O)(=O)O)cc5cc(S(=O)(=O)O)c(N=Nc6ccccc6)c(O)c5c4N)cc3)cc2)c(N)c1`: “active; clear evidence”; for `CCCCOC(=O)c1ccccc1C(=O)OCc1ccccc1`: “active; some evidence”. On the same count and under the same terms, for `NS(=O)(=O)c1cc(C(=O)O)c(NCc2ccco2)cc1Cl` the value was “active; equivocal evidence”; for `C[C@H]1CCCC(=O)CCC/C=C/c2cc(O)cc(O)c2C(=O)O1`, “active; no evidence”. On the same count and under the same terms, for `Cc1cc(C)c(N)cc1C` the value was “active; clear evidence”; for `Oc1ccc2ccccc2c1N=Nc1ccccc1`, “active; clear evidence”; for `Nc1ccccc1-c1ccccc1`, “active; no evidence”. On to `Nc1ccc(O)c([N+](=O)[O-])c1`, for which the carcinogen call is “active; clear evidence”. On the same count and under the same terms, for `c1ccc(NNc2ccccc2)cc1` the value was “active; clear evidence”; for `CCNC(=O)Nc1ncc([N+](=O)[O-])s1`, “active; no evidence”; for `CC(=O)Nc1ccc(N=Nc2cc(C)ccc2O)cc1`, “active; clear evidence”. On the same count and under the same terms, the same measure for `CC(CCl)OP(=O)(OC(C)CCl)OC(C)CCl` (stereo unspecified): “active; some evidence”. On the same count and under the same terms, the same measure for `NCCCCCCCCCCC(=O)O`: “active; clear evidence”.

The same data set, now with this note: Route (rodents): Dosed water.
As for `COc1cc(-c2ccc(N=Nc3c(S(=O)(=O)O)cc4cc(S(=O)(=O)O)cc(N)c4c3O)c(OC)c2)ccc1N=Nc1c(S(=O)(=O)O)cc2cc(S(=O)(=O)O)cc(N)c2c1O`, the carcinogen call was “active; clear evidence”. Consider `O=C(O)C(Cl)Br` (stereo unspecified), for which the carcinogen call is “active; clear evidence”.

Regarding `[O]=[Cr](=[O])([OH])[O][Cr](=[O])(=[O])[OH]`, the carcinogen call is “active; clear evidence”. As to `c1ccncc1`, the carcinogen call is “active; some evidence”.

Consider `N#CC(Br)Br`, for which the carcinogen call was “active; clear evidence”. On the same count and under the same terms, for `Cc1ccc(S(=O)(=O)Oc2ccc(N=Nc3ccc(-c4ccc(N=Nc5c(O)ccc6cc(S(=O)(=O)O)cc(S(=O)(=O)O)c56)c(C)c4)cc3C)cc2)cc1` the value was “active; clear evidence”.

The same data set, now with this note: Route (rodents): Gavage.
With `CC1C(=O)C[C@]2(C(C)C)C[C@H]12` (stereo partly specified), the carcinogen call is “active; some evidence”. `CCCCC(CC)COP(=O)(OCC(CC)CCCC)OCC(CC)CCCC` (stereo unspecified): the carcinogen call was “active; equivocal evidence”. In the case of `Nc1ccc(Cl)cc1`, the carcinogen call was “active; clear evidence”. As to `C=CC(=O)NCO`, the carcinogen call is “active; no evidence”. Same read-out and setting: for `Clc1ccc(-c2cc(Cl)c(Cl)c(Cl)c2)cc1Cl` the value was “active”; for `CCCN(CCC)S(=O)(=O)c1ccc(C(=O)O)cc1`, “active; no evidence”. On the same count and under the same terms, the same measure for `CC(O)c1ccccc1` (stereo unspecified): “active; some evidence”; for `Nc1cc([N+](=O)[O-])ccc1O`: “active; some evidence”; for `OCc1c[nH]c2ccccc12`: “active; no evidence”.

Turning to `COc1c(Cl)c(Cl)c(Cl)c(Cl)c1Cl`, the carcinogen call is “active; some evidence”. On to `ClC=C(Cl)Cl`, for which the carcinogen call was “active; no evidence”.

As to `CC(C)=C1CC[C@@H](C)CC1=O`, the carcinogen call was “active; no evidence”. Still for that read-out and setting: for `Oc1ccc(O)cc1` the value was “active; some evidence”; for `Clc1ccc(Cl)cc1`, “active; clear evidence”; for `ClC=CCCl`, “active; clear evidence”.

With `[Cl-].[Cl-].[Hg+2]`, the carcinogen call was “active; some evidence”. The same measure, in the same setting: the same measure for `O=C1CCc2ccccc2O1`: “active; some evidence”. On the same count and under the same terms, the same measure for `O=c1ccc2ccccc2o1`: “active; some evidence”; for `NC=O`: “active; no evidence”; for `ClC(Cl)Cl`: “active; clear evidence”. With `C=CC(=O)OCC`, the carcinogen call was “active; clear evidence”. The same measure, in the same setting: for `O=C/C=C/O` the value was “active; clear evidence”; for `C=CCN=C=S`, “active; clear evidence”; for `C=CCOC(=O)CC(C)C`, “active; clear evidence”. The same measure, in the same setting: the same measure for `C[C@@H]1Cc2c(Cl)cc(C(=O)N[C@@H](Cc3ccccc3)C(=O)O)c(O)c2C(=O)O1`: “active; clear evidence”; for `O=Cc1ccco1`: “active; some evidence”. Still for that read-out and setting: for `O=C(O)c1cc(N=Nc2ccc(S(=O)(=O)Nc3ccccn3)cc2)ccc1O` the value was “active; some evidence”.

The same data set, now with this note: Route (rodents): Gavage; Second Route: Topical.
Turning to `Clc1cc2c(c(Cl)c1Cl)Oc1cc(Cl)c(Cl)c(Cl)c1O2`, the carcinogen call was “active; equivocal evidence”.

The data set is the same for the next values; noted with them: Route (rodents): Inhalation.
Consider `C=C(C)c1ccccc1`, for which the carcinogen call was “active; some evidence”. The same measure, in the same setting: the same measure for `c1ccc2ccccc2c1`: “active; clear evidence”; for `C=CC(=C)C`: “active; clear evidence”; for `O=[O+][O-]`: “active; no evidence”.

Turning to `CCC1CO1` (stereo unspecified), the carcinogen call was “active; clear evidence”.

Take `CC(C)c1ccccc1`: the carcinogen call was “active; clear evidence”.

Regarding `CCc1ccccc1`, the carcinogen call was “active; clear evidence”. On the same count and under the same terms, the same measure for `FC(F)(F)c1ccc(Cl)cc1`: “active; some evidence”; for `CC(C)CON=O`: “active; clear evidence”.

Take `C=CCOCC1CO1` (stereo unspecified): the carcinogen call is “active; equivocal evidence”. Same read-out and setting: for `CCCCOCCO` the value was “active; no evidence”.

For the compound `CC(=O)CC(C)C`, the carcinogen call is “active; some evidence”.

For the compound `C[N+](=O)[O-]`, the carcinogen call is “active; no evidence”.

Consider `FC(F)=C(F)F`, for which the carcinogen call was “active; clear evidence”. Still for that read-out and setting: the same measure for `c1ccc2c(c1)CCCC2`: “active; some evidence”.

The data set is the same for the next values; noted with them: Route (rodents): Inhalation; Second Route: Gavage.
Turning to `C=C(Cl)Cl`, the carcinogen call is “active; clear evidence”.

The same data set, now with this note: Route (rodents): Interperitoneal.
As to `COc1ccc(C(=O)/C(Br)=C\C(=O)O)cc1`, the carcinogen call is “active; clear evidence”.

The same data set, now with this note: Route (rodents): Topical.
With `CCCCCCCCCCCC(=O)N(CCO)CCO`, the carcinogen call was “active; no evidence”.
